Measurements published in US8466155B2, “Pyrimidines” (Boehringer Ingelheim International GmbH, priority 2009, dated 2013).

Molecular target: T1, PTK2 (Homo sapiens, UniProt Q05397)
T1 construct: purchased Invitrogen PV3832
Test: PTK2 enzyme test, Assay 1 (DELFIA, PT60 antibody)
Assay type: biochemical
Conditions: 1 h pre-incubation, 1 h kinase reaction, values without *
Procedure: This test uses active PTK2 enzyme (Invitrogen Code PV3832) and poly-Glu-Tyr (4:1, Sigma P-0275) as the kinase substrate. The kinase activity is detected through the phosphorylation of the substrate in a DELFIA™ assay. The phosphorylated substrate is detected with the europium-labelled phosphotyrosine antibody PT60 (Perkin Elmer, No.: AD00400).
In order to determine concentration-activity curves with PTK2-inhibitors the compounds are serially diluted in 10% DMSO/H20 and 10 μL of each dilution are placed in each well of a 96-well microtitre plate (clear plate with a U-shaped base, Greiner No. 650101) (the inhibitors are tested in duplicates) and mixed with 10 μL/well of PTK2 kinase (0.01 μg/well). PTK2 kinase has been correspondingly diluted beforehand with kinase dilution buffer (20 mM TRIS/HCl pH 7.5, 0.1 mM EDTA, 0.1 mM EGTA, 0.286 mM sodium orthovanadate, 10% glycerol with the addition of freshly prepared BSA (fraction V, 1 mg/mL) and DTT (1 mM)). The test compound and the PTK2 kinase are pre-incubated for 1 h at RT and shaken at 500 revolutions per min. The reaction is started by the addition of 10 μL/well poly (Glu,Tyr) substrate (25 μg/well poly (Glu, Tyr), 0.05 μg/well biotinylated poly (Glu,Tyr) dissolved in 250 mM TRIS/HCl pH 7.5, 9 mM DTT)—the final concentration of DMSO is 2%. Then 20 μL of ATP Mix (30 mM TRIS/HCl pH 7.5, 0.02% Brij, 0.2 mM sodium orthovanadate, 10 mM magnesium acetate, 0.1 mM EGTA, 1× phosphatase inhibitor cocktail 1 (Sigma, No.: P2850), 50 μM ATP (Sigma, No.: A3377; 15 mM stock solution)) are added. After 1 h of kinase reaction (the plates are shaken at 500 rpm), the reaction is stopped by the addition of 12 μL/well 100 mM EDTA, pH 8.0 and shaken for a further 5 min at RT (500 rpm). 55 μL of the reaction mixture are transferred into a streptavidin plate (Strepta Well High Bind (transparent, 96-well) made by Roche, No.: 11989685001) and incubated for 1 h at RT (shaking at 500 rpm). Then the microtitre plate is washed three times with 200 μL/well D-PBS (Invitrogen, No. 14190). 100 μL of a solution containing DELFIA Eu-N1 Anti-Phosphotyrosine PT60 antibody (Perkin Elmer, No.: AD0040, diluted 1:2000 in DELFIA test buffer (Perkin Elmer, No.: 1244-111)) is then added and the mixture is incubated for 1 h at RT (shaking at 500 rpm). Then the plate is washed three times with 200 μL/well DELFIA washing buffer (Perkin Elmer, No.: 1244-114), 200 μL/well strengthening solution (Perkin Elmer, No.: 1244-105) are added and the mixture is incubated for 10 min at RT (shaking at 300 rpm).
The time-delayed europium fluorescence is then measured in a microtitre plate reader (VICTOR^3, Perkin Elmer). […] Wells that contain test buffer instead of enzyme are used as a control of the background kinase activity.
The IC50 values are determined from analyses of the concentration activity by iterative calculation with the aid of a sigmoid curve analysis algorithm (FIFTY, based on GraphPAD Prism Version 3.03) with a variable Hill coefficient.

T1 sequence (Q05397 whole entry): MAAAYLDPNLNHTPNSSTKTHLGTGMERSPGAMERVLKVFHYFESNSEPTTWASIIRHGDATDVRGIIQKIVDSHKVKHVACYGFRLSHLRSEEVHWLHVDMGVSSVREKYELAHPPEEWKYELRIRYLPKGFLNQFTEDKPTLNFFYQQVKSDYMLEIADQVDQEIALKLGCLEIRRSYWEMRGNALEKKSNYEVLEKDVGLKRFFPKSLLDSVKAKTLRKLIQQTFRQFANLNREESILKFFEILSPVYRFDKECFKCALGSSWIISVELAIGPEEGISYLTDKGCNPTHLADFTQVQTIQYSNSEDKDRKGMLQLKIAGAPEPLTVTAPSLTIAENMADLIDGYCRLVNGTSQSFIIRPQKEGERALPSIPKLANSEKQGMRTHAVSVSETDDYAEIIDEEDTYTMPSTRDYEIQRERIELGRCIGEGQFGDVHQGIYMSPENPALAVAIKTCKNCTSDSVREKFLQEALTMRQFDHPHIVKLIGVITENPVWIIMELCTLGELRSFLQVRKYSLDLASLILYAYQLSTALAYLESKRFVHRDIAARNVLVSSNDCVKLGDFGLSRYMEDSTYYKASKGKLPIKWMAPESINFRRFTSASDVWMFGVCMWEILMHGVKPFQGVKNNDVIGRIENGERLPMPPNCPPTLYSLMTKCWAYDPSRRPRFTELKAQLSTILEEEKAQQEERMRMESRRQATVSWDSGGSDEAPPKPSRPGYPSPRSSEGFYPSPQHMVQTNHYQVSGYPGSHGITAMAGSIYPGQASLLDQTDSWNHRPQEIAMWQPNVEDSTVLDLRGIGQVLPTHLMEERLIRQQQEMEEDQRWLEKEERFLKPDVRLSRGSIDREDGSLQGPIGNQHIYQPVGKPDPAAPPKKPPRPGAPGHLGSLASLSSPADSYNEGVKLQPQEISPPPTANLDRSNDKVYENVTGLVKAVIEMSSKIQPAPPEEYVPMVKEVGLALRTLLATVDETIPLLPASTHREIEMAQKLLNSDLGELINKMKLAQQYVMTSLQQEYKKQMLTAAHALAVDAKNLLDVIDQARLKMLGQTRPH

SMILES | IC50
COc1cc(C(=O)NC2CCN(C)CC2)ccc1Nc1ncc(C(F)(F)F)c(O[C@H]2Cc3ccccc3[C@@H]2N(C)S(C)(=O)=O)n1 [Example 32] | 400 nM
COc1cc(C(=O)NC2CCN(C)CC2)c(F)cc1Nc1ncc(C(F)(F)F)c(O[C@@H]2CCC[C@H]2NS(=O)(=O)C2CC2)n1 [Example 46] | 34 nM
COc1cc(C(=O)NCCn2ccnc2C)c(F)cc1Nc1ncc(Cl)c(O[C@@H]2Cc3ccccc3[C@H]2N(C)S(C)(=O)=O)n1 [Example 52] | 6 nM
CCS(=O)(=O)N[C@@H]1CCC[C@H]1Oc1nc(Nc2cc(F)c(C(=O)NC3CCN(C)CC3)cc2OC)ncc1C(F)(F)F [Example 44] | 6 nM
CONC(=O)c1cc(OC)c(Nc2ncc(Cl)c(O[C@@H]3Cc4ccccc4[C@H]3N(C)S(C)(=O)=O)n2)cc1F [Example 43] | 22 nM
COc1cc(C(=O)NN2CCN(C)CC2)c(F)cc1Nc1ncc(Cl)c(O[C@@H]2Cc3ccccc3[C@H]2N(C)S(C)(=O)=O)n1 [Example 59] | 6 nM
COc1cc(C(=O)NC2CCN(C)CC2)c(F)cc1Nc1ncc(C(F)(F)F)c(O[C@@H]2CCC[C@H]2NS(=O)(=O)CCl)n1 [Example 45] | 5 nM
COc1cc(C(=O)N[C@H]2CC[C@H](O)CC2)c(F)cc1Nc1ncc(C(F)(F)F)c(O[C@@H]2Cc3ccccc3[C@H]2N(C)S(C)(=O)=O)n1 [Example 10] | 7 nM
COc1cc(C(=O)N[C@H]2CC[C@H](N3CCN(CC4CC4)CC3)CC2)c(F)cc1Nc1ncc(Cl)c(O[C@@H]2Cc3ccccc3[C@H]2N(C)S(C)(=O)=O)n1 [Example 58] | 6 nM
COc1cc(NC(C)=O)ccc1Nc1ncc(C(F)(F)F)c(O[C@@H]2Cc3ccccc3[C@H]2N(C)S(C)(=O)=O)n1 [Example 94] | 5 nM
COc1cc(C(=O)NCC(C)(C)C)ccc1Nc1ncc(C(F)(F)F)c(O[C@@H]2Cc3ccccc3[C@H]2N(C)S(C)(=O)=O)n1 [Example 15] | 11 nM
COc1cc(C(=O)NCC2CC2)c(F)cc1Nc1ncc(Cl)c(O[C@@H]2Cc3ccccc3[C@H]2N(C)S(C)(=O)=O)n1 [Example 66] | 16 nM
COc1cc(C(=O)NC[C@H](O)CO)c(F)cc1Nc1ncc(C(F)(F)F)c(O[C@@H]2Cc3ccccc3[C@H]2N(C)S(C)(=O)=O)n1 [Example 65] | 10 nM

These reach a lower IC50. Values come first.

IC50 | SMILES
4 nM | COc1cc(C(=O)NC[C@@H](O)CO)ccc1Nc1ncc(C(F)(F)F)c(O[C@@H]2Cc3ccccc3[C@H]2N(C)S(C)(=O)=O)n1 [Example 50]
4 nM | COc1cc(C(=O)NN2CCN(C)CC2)c(F)cc1Nc1ncc(C(F)(F)F)c(O[C@@H]2CCC[C@H]2NS(C)(=O)=O)n1 [Example 98]
2 nM | CS(=O)(=O)N[C@@H]1CCC[C@H]1Oc1nc(Nc2ccc3ncsc3c2)ncc1C(F)(F)F [Example 97]
4 nM | COc1cc(NC(=O)C2CCN(C)CC2)ccc1Nc1ncc(C(F)(F)F)c(O[C@@H]2Cc3ccccc3[C@H]2N(C)S(C)(=O)=O)n1 [Example 91]
0.37 nM | COc1cc(C(=O)NCCN(C)C)c(F)cc1Nc1ncc(C(F)(F)F)c(O[C@@H]2CCC[C@H]2NS(C)(=O)=O)n1 [Example 99]
4 nM | COc1cc(C(=O)NCCCN(C)C)c(F)cc1Nc1ncc(C(F)(F)F)c(O[C@@H]2Cc3ccccc3[C@H]2N(C)S(C)(=O)=O)n1 [Example 8]
0.33 nM | COc1cc(C(=O)NN2CCN(C)CC2)ccc1Nc1ncc(C(F)(F)F)c(O[C@@H]2CCC[C@H]2N(C)S(C)(=O)=O)n1 [Example 89]
0.42 nM | COc1cc(C(=O)NC2CCN(C)CC2)c(Cl)cc1Nc1ncc(C(F)(F)F)c(O[C@@H]2CCCC[C@H]2N(C)S(C)(=O)=O)n1 [Example 74, 2-chloro-4-{4-[(1R,2R)-2-(methanesulphonyl-methyl-amino)-cyclohexyloxy]-5-trifluoromethyl-pyrimidin-2-ylamino}-5-methoxy-N-(1-methyl-piperidin-4-yl)-benzamide]
2 nM | COc1cc(C(=O)NCCN2CCN(C)CC2)c(Cl)cc1Nc1ncc(Cl)c(O[C@@H]2Cc3ccccc3[C@H]2N(C)S(C)(=O)=O)n1 [Example 34]
2 nM | COc1cc(C(=O)NCCN2CCN(C)CC2)c(F)cc1Nc1ncc(Cl)c(O[C@@H]2Cc3ccccc3[C@H]2N(C)S(C)(=O)=O)n1 [Example 57]
0.31 nM | COc1ccc(C(=O)NCCN(C)C)cc1Nc1ncc(C(F)(F)F)c(O[C@@H]2Cc3ccccc3[C@H]2N(C)S(C)(=O)=O)n1 [Example 81]
0.36 nM | COc1cc(C(=O)NCCN(C)C)ccc1Nc1ncc(C(F)(F)F)c(O[C@@H]2CCCC[C@H]2N(C)S(C)(=O)=O)n1 [Example 111]
3 nM | COc1cc(C(=O)NC2CCN(C)CC2)c(Cl)cc1Nc1ncc(Cl)c(O[C@@H]2Cc3ccccc3[C@H]2N(C)S(C)(=O)=O)n1 [Example 62]
0.54 nM | COc1cc(C(=O)NCCN(C)C)c(F)cc1Nc1ncc(C(F)(F)F)c(O[C@@H]2Cc3ccccc3[C@H]2NS(C)(=O)=O)n1 [Example 96]
0.42 nM | COc1cc(C(=O)NC2CCN(C)CC2)c(Cl)cc1Nc1ncc(C(F)(F)F)c(O[C@@H]2CCCC[C@H]2NS(C)(=O)=O)n1 [Example 93]
0.39 nM | COc1cc(C(=O)NC2CCN(C)CC2)c(F)cc1Nc1ncc(C(F)(F)F)c(O[C@@H]2CCCC[C@H]2NS(C)(=O)=O)n1 [Example 105]
3 nM | COc1cc(C(=O)NCCCN(C)C)c(F)cc1Nc1ncc(Cl)c(O[C@@H]2Cc3ccccc3[C@H]2N(C)S(C)(=O)=O)n1 [Example 60]
0.61 nM | COc1cc(C(=O)NC2CCN(C)CC2)c(Cl)cc1Nc1ncc(C(F)(F)F)c(O[C@@H]2CCC[C@H]2N(C)S(C)(=O)=O)n1 [Example 102, 2-chloro-4-{4-[(1R,2R)-2-(methanesulphonyl-methyl-amino)-cyclopentyloxy]-5-trifluoromethyl-pyrimidin-2-ylamino}-5-methoxy-N-(1-methyl-piperidin-4-yl)-benzamide]
3 nM | COc1cc(C(=O)NN2CCN(C)CC2)c(Cl)cc1Nc1ncc(Cl)c(O[C@@H]2Cc3ccccc3[C@H]2N(C)S(C)(=O)=O)n1 [Example 63]
